The text below walks through data of ChEMBL document CHEMBL3351476, “The discovery of I-BET726 (GSK1324726A), a potent tetrahydroquinoline ApoA1 up-regulator and selective BET bromodomain inhibitor” (J Med Chem, 2014).

Series [1] deals with Bromodomain-containing protein 2 (Homo sapiens, UniProt P25440). The experiment in a line: Displacement of biotinylated tetra-acetylated histone H4 from His6-tagged BRD2 (1 to 473 aa) (unknown origin) after 1 hr by TR-FRET assay. On the technique in general: In TR-FRET formats the signal depends on donor and acceptor labels being close together.
Series [2] concerns the target Bromodomain-containing protein 3 (Homo sapiens, UniProt Q15059). The experiment in a line: Displacement of biotinylated tetra-acetylated histone H4 from His6-tagged BRD3 (1 to 475 aa) (unknown origin) after 1 hr by TR-FRET assay.
Series [3] concerns the target Bromodomain-containing protein 4 (Homo sapiens, UniProt O60885). As to the kind of experiment: Displacement of biotinylated tetra-acetylated histone H4 from His6-tagged BRD4 (1 to 477 aa) (unknown origin) after 1 hr by TR-FRET assay.
The nature of series [4]: Solubility of the compound in fasted state simulated intestinal fluid at 125 ug/ml after 16 hrs by HPLC analysis. The format is ADME. Particulars: for solubility at 16 h: fasted state simulated intestinal fluid.
For series [5], the system named is HepG2. The experiment in a line: Upregulation of ApoA1 in human HepG2 cells after 16 hrs by luciferase reporter assay relative to control. The format is functional. On the technique in general: Reporter assays use an easily measured gene product as a stand-in for the process of interest.
In another series the test system is PBMC. As to the kind of experiment: Inhibition of LPS-induced IL6 production in human PBMC after 18 to 24 hrs by immunoassay. The class given is functional, cell-based.
The subject of a further series is Blood. As to the kind of experiment: Inhibition of LPS-induced IL6 production in human whole blood after 24 hrs by immunoassay. The class given is functional, tissue-based.
For series [6], the system named is Hepatocyte. The experiment in a line: Clearance in human hepatocytes assessed per gram of tissue at 1 uM by LC-MS/MS analysis. The class given is ADME, cell-based.
Series [7] deals with Hepatocyte. As to the kind of experiment: Clearance in rat hepatocytes assessed per gram of tissue at 1 uM by LC-MS/MS analysis. The class given is ADME, cell-based.
A short description of series [8]: Clearance in dog hepatocytes assessed per gram of tissue at 1 uM by LC-MS/MS analysis. The format is ADME, cell-based, Canis lupus familiaris, Hepatocyte.
Series [9] in a line: Clearance in Cynomolgus monkey hepatocytes assessed per gram of tissue at 1 uM by LC-MS/MS analysis. The class given is ADME, cell-based, Macaca fascicularis, Hepatocyte.
Another series deals with Cytochrome P450 1A2 (Homo sapiens, UniProt P05177). As to the kind of experiment: Inhibition of CYP1A2 (unknown origin) expressed in Escherichia coli bactosomes using ethoxyresorufin as substrate after 10 mins by fluorescence assay. The format is ADME.
The target in the next series is Cytochrome P450 2C9 (Homo sapiens, UniProt P11712). As to the kind of experiment: Inhibition of CYP2C9 (unknown origin) expressed in Escherichia coli bactosomes using 7-methoxy-4-trifluoromethylcoumarin-3-acetic acid as substrate after 10 mins by fluorescence assay. The format is ADME.
The target of another series is Cytochrome P450 2C19 (Homo sapiens, UniProt P33261). As to the kind of experiment: Inhibition of CYP2C19 (unknown origin) expressed in Escherichia coli bactosomes using 3-butyryl-7-methoxycoumarin as substrate after 10 mins by fluorescence assay. The class given is ADME.
A further series deals with Cytochrome P450 2D6 (Homo sapiens, UniProt P10635). As to the kind of experiment: Inhibition of recombinant human CYP2D6 expressed in Escherichia coli bactosomes using 4-methylaminomethyl-7-methoyxycoumarin as substrate after 10 mins by fluorescence assay. The format is ADME.
The target of series [10] is T1, Cytochrome P450 3A4 (Homo sapiens, UniProt P08684). The experiment in a line: Inhibition of human recombinant CYP3A4 expressed in Escherichia coli bactosomes using 7-benzloxyquinolone as substrate after 10 mins by fluorescence assay. The format is ADME.
The target of series [11] is T1, Cytochrome P450 3A4. As to the kind of experiment: Inhibition of human recombinant CYP3A4 expressed in Escherichia coli bactosomes using diethoxyfluorescein as substrate after 10 mins by fluorescence assay. The class given is ADME.
For series [12], the system named is Mus musculus. As to the kind of experiment: Antiinflammatory activity in Balb/c mouse assessed as inhibition of LPS-induced PAI-1 mRNA expression in liver administered orally 2 hrs before LPS challenge measured after 2 hrs. The format is functional, organism-based.
Series [13] concerns Mus musculus. As to the kind of experiment: Antiinflammatory activity in Balb/c mouse assessed as inhibition of LPS-induced PAI-1 mRNA expression in liver at 3 mg/kg, po 2 hrs before LPS challenge measured after 2 hrs. The class given is functional, organism-based. On the set-up: dose 3 mg/kg.
For series [14], the system named is HepG2. As to the kind of experiment: Upregulation of ApoA1 in human HepG2 cells at 1.25 uM after 16 hrs by luciferase reporter assay relative to control. The format is functional.
The subject of series [15] is HepG2. As to the kind of experiment: Upregulation of ApoA1 in human HepG2 cells at 10 uM after 16 hrs by luciferase reporter assay relative to control. The format is functional.

SMILES strings stand for the structures. In brackets after ≈: the same amount, converted by molar mass. Activity calls are given as the source filed them. The calls are words filed in the database; no cut-off is given here. Bounds are passed on as bounds.

Bromodomain-containing protein 2, sequence (P25440 whole entry, the tested form may be a part): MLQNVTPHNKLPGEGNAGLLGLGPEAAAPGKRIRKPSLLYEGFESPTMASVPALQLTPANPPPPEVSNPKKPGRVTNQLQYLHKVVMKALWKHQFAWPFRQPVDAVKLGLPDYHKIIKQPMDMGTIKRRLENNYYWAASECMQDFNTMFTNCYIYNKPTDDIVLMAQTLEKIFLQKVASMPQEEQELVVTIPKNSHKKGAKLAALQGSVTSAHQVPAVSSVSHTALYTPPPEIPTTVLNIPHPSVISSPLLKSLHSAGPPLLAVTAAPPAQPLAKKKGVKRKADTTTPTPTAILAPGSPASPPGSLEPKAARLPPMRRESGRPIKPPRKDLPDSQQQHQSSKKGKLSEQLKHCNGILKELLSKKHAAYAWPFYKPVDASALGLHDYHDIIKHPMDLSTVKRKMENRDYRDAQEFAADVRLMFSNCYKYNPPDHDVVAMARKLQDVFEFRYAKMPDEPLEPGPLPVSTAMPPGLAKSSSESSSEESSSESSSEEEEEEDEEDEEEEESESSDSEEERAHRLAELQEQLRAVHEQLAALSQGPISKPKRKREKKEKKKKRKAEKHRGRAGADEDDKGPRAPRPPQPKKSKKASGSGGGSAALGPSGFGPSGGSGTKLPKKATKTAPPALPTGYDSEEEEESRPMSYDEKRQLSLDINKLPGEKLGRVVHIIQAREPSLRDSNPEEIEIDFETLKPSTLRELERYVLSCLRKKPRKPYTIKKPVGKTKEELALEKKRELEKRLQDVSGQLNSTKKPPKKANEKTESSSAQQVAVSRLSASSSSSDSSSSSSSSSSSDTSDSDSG
Bromodomain-containing protein 3, sequence (Q15059 whole entry, the tested form may be a part): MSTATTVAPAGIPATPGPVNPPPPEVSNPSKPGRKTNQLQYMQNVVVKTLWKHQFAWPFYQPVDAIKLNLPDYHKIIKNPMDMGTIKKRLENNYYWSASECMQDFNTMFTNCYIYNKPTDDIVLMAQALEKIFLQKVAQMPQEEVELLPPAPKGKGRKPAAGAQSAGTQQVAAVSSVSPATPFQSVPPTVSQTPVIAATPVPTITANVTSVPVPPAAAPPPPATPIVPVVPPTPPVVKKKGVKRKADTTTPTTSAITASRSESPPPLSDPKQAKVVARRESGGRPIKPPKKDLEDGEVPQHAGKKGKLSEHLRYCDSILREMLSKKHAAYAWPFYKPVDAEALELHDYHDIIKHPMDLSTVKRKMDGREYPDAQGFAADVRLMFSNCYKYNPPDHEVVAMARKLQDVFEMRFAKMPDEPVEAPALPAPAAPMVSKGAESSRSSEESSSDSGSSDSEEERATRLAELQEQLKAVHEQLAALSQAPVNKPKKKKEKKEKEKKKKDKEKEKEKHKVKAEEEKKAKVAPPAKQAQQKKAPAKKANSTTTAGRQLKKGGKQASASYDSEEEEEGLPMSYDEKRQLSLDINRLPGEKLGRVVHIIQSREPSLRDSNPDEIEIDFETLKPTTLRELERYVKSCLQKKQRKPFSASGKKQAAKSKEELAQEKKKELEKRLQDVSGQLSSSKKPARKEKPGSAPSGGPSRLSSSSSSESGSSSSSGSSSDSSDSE
T1 sequence (P08684 whole entry): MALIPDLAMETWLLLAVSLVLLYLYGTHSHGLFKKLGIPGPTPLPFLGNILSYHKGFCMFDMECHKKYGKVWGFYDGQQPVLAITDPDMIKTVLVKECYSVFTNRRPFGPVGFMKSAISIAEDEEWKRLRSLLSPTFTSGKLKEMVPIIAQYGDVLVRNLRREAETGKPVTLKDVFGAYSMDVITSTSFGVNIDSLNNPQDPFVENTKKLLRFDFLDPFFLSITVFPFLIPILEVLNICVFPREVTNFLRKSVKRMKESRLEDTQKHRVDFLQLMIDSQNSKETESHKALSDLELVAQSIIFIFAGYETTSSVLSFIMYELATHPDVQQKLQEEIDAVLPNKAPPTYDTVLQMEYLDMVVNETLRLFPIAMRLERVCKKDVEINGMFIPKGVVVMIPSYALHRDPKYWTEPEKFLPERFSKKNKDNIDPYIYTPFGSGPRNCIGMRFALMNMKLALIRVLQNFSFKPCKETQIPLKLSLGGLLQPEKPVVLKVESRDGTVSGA
Cytochrome P450 2C9, sequence (P11712 whole entry): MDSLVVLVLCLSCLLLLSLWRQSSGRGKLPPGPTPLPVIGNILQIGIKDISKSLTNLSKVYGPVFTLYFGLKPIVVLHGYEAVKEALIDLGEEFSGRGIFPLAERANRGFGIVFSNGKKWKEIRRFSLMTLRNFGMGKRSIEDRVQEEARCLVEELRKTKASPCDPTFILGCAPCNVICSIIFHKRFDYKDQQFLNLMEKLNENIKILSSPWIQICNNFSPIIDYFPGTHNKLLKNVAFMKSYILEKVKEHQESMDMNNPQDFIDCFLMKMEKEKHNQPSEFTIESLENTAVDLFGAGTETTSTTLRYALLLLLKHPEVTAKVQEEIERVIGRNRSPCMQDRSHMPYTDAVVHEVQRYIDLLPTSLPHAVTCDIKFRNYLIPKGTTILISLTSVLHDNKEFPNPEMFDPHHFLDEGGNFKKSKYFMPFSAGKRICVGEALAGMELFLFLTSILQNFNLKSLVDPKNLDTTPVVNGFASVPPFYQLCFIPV
Cytochrome P450 2C19, sequence (P33261 whole entry): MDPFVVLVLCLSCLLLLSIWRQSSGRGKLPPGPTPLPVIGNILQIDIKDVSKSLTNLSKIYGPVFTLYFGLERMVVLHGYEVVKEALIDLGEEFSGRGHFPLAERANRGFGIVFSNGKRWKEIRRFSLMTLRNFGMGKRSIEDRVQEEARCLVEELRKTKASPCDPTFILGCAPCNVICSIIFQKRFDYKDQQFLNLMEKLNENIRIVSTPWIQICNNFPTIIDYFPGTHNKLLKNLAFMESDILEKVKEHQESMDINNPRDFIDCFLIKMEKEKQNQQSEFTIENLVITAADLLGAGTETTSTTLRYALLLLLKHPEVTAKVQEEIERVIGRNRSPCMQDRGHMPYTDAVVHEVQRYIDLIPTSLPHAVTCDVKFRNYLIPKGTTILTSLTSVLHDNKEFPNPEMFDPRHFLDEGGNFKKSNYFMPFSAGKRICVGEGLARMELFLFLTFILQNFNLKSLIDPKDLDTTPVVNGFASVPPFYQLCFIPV
Cytochrome P450 1A2, sequence (P05177 whole entry): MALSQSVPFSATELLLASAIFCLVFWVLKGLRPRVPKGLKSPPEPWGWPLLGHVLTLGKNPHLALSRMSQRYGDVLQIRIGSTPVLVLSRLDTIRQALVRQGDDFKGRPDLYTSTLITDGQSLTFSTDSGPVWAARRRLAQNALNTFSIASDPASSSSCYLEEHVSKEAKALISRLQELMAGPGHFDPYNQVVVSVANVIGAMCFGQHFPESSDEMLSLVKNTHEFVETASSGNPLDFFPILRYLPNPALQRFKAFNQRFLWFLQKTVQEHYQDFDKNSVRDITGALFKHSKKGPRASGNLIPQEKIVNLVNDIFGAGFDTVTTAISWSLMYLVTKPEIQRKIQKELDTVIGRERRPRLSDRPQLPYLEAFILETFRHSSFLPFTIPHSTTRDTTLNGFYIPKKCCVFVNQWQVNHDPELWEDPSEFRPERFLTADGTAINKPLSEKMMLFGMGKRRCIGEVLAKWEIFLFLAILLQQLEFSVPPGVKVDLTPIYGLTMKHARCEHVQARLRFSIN
Cytochrome P450 2D6, sequence (P10635 whole entry): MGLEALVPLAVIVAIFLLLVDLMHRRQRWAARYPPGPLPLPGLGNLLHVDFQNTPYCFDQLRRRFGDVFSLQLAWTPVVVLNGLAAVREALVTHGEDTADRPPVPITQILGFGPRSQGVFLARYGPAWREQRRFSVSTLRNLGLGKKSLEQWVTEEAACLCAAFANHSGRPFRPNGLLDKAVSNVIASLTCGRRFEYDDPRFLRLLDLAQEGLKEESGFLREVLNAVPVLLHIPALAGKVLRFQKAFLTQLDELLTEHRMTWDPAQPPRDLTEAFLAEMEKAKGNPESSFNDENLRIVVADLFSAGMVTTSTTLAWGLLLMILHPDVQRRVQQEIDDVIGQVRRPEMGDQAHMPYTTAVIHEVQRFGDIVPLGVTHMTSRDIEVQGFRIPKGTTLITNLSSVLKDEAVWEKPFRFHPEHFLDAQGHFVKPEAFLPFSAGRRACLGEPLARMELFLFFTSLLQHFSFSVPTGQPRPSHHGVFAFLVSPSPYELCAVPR

As for `CC(=O)N1c2ccc(-c3ccc(CN4CCCCC4)cc3)cc2[C@H](Nc2ccccc2)C[C@@H]1C`, the IC50 was 501 nM in series [1]; 316 nM in series [2]; 398 nM in series [3]; 3.16 nM in the series with PBMC; 63.1 nM in the series with Blood; more than 33000 nM at Cytochrome P450 1A2. The IC50 at Cytochrome P450 2C9 was found to be 14000 nM; at Cytochrome P450 2C19, 20000 nM; at Cytochrome P450 2D6 it was 8000 nM; at Cytochrome P450 3A4 [10] it was 10000 nM; on Cytochrome P450 3A4 [11] it was 2000 nM. Also, the solubility in series [4] (simulated gi fluid, 16 h) is 125 µg/mL (≈ 276 µM). This compound also gave a pEC170 with HepG2 [5] of 8. The CLH with Hepatocyte [6] turned out to be 1.8 mL/min/g; in the series with Hepatocyte [7], 0.8 mL/min/g; in series [8], 0.9 mL/min/g; in [9] it was 6 mL/min/g.

For the compound `CC(=O)N1c2ccc(-c3ccc(C(=O)O)cc3)cc2[C@H](Nc2ccc(Cl)cc2)C[C@@H]1C`, in the series on Mus musculus [12], the inhibition entry was “Dose-dependent effect”. Moreover, the inhibition entry in the series with Mus musculus [13] was “Active”.

As for `CC(=O)N1c2ccccc2C(Nc2ccccc2)CC1C` (mixture of isomers), the “fold change (FC)” value in the series with HepG2 [14] was determined as 1.7; in the series on HepG2 [15] it was 2.3.

As for `CCC(=O)N1c2ccccc2C(Nc2ccccc2)CC1C` (mixture of isomers), the “fold change (FC)” value in the series with HepG2 [14] is listed as 1.6; in the series on HepG2 [15], 1.4.

As to `CCCC(=O)N1c2ccccc2C(Nc2ccccc2)CC1C` (mixture of isomers), the “fold change (FC)” value in the series on HepG2 [15] is reported as “<=1.1”.

On to `CCCCC(=O)N1c2ccccc2C(Nc2ccccc2)CC1C` (mixture of isomers), for which the “fold change (FC)” value in the series with HepG2 [15] is given as “<=1.1”.

As for `CC(=O)N1c2ccccc2[C@@H](Nc2ccc(C)cc2)C[C@H]1C` (racemic), in the series on HepG2 [14], the “fold change (FC)” value amounted to 1.7.

Turning to `CC(=O)N1c2ccccc2[C@@H](Nc2ccc(C)cc2)C[C@@H]1C` (racemic), the “fold change (FC)” value in the series on HepG2 [14] turned out to be 1.1.

As for `CC(=O)N1c2ccccc2[C@H](Nc2ccccc2)C[C@@H]1C` (racemic), in the series with HepG2 [14], the “fold change (FC)” value turned out to be 1.7.

For `CC(=O)N1c2ccc(-c3ccc(CO)cc3)cc2[C@H](Nc2ccccc2)C[C@@H]1C` (racemic), the IC50 in series [1] was 794 nM; in series [2] it was 501 nM; in [3], 501 nM. Also, the solubility at 16 h in [4] is 73 µg/mL (≈ 189 µM). In the series on HepG2 [5], this compound displayed a pEC170 of 7.5.

Consider `CC(=O)N1c2ccc(-c3ccc(CN4CCOCC4)cc3)cc2[C@H](Nc2ccccc2)C[C@@H]1C` (racemic), for which the IC50 was 794 nM in series [1], 631 nM in [2] and 501 nM in series [3]. The solubility at 16 h in series [4] is 107 µg/mL (≈ 235 µM). The pEC170 in the series with HepG2 [5] was found to be 7.6.

For `CC(=O)N1c2ccc(-c3cccc(CN4CCCCC4)c3)cc2[C@H](Nc2ccccc2)C[C@@H]1C` (racemic), the IC50 in series [1] is 1260 nM; in series [2] it was 398 nM; in series [3], 794 nM. Besides, the solubility at 16 h in series [4] was 99 µg/mL (≈ 218 µM). The pEC170 in the series on HepG2 [5] came out at 7.1.

By IC50 is commonly meant the concentration that inhibits the measured activity by half. Usually solubility stands for how much of the substance goes into solution per volume.
